# Experiments:
# [1] = tested on: B10.PL mice with acute EAE; assay: Treatment of MBP-induced acute EAE in B10.PL mice, daily clinical EAE disability score; assay type: in vivo; design: key to cumulative disability (sum of daily disability scores; mean) / Cumulative disability / EAE severity (initial) / Remission (minimum) / EAE severity (final) / EAE severity (decrease): EAE score 0 = normal to 5 = moribund; cumulative = sum of daily scores
# Experimental: Breeding pairs of B10.PL-H2^uH2-T18^a/(73NS)/SnJ (hereafter B10.PL) mice were purchased from the Jackson Laboratory (Bar Harbor, Me.). The experimental B10.PL mice were either bred in the pathogen-free mouse colony at the University of Wisconsin Department of Biochemistry, or purchased from the Jackson Laboratory. Mice were housed at 23° C. with 40-60% humidity, 12 hr light-dark cycles, and ad libidum access to water. Unless stated otherwise, the mice were fed Lab Diet #5008 (PMI Nutrition International, Inc., Brentwood, Mo.) containing 0.33 μg/d vitamin D3 and 1% calcium. Experiments used male and female mice aged 6-8 wks (age- and sex-matched within experiments). The University of Wisconsin College of Agricultural and Life Sciences Institutional Animal Care and Use Committee approved all of the experimental protocols.
# Bovine myelin basic protein (Sigma Chemical Co., St. Louis, Mo.) was dissolved at 2 mg/mL in 0.1 N acetic acid and emulsified with Complete Freund's adjuvant containing heat-killed Mycobacterium tuberculosis H37 Ra solution (Difco). Each mouse was injected subcutaneously with 0.1 mL emulsion in each hind flank (400 micrograms of MBP per mouse). On the day of immunization and again 2 days later, 200 nanograms of pertussis toxin was injected into the peritoneum. Thereafter, clinical EAE signs were scored daily as follows: 0, normal; 1, limp tail; 1.5, partial paralysis of one hind limb; 2, partial paralysis of both hind limbs; 2.5 partial paralysis of one hind limb and complete paralysis of one hind limb; 3, paralysis of both hind limbs; 4, hind and fore limb paralysis; 5, moribund.
# The vitamin D3 and 1,25-(OH)2D3 were obtained from Sigma Chemical Co. The vitamin D3 was dissolved in safflower oil and stored in the dark at 5° C. The 1,25-(OH)2D3 was dissolved in 100% ethanol (1 mg/mL) and stored in the dark under nitrogen gas at −20° C. The concentration of 1,25-(OH)2D3 was determined by spectral analysis. Animals with stage 2.3±0.3 were randomized into treatment groups. The details of the treatments are given in the figure legends and table footnotes. The synthetic diet used in some experiments was formulated to contain all essential nutrients except vitamin D3 and was prepared exactly as we described (Spach and Hayes, 2005, J. Immunol. 175:4119-4126). For experiments using supplementary vitamin D3, the placebo group was fed the synthetic diet ad libidum without added vitamin D3, whereas the vitamin D3-supplemented group was fed the synthetic diet ad libidum with vitamin D3 added in an amount to provide 1 μg/d, calculated based on a daily measured consumption of 4.0 g dry weight of diet per mouse. Fresh synthetic diet was provided three times per week. At several times during the study, mice were weighed and blood samples were obtained from the tail vein. At the conclusion of the study, the mice were euthanized, a blood sample was obtained, perfusion was done, and the spinal cords and optic nerves were removed. The spinal cords were flash frozen with liquid nitrogen and stored at −70° C. prior to 1,25-(OH)2D3 extraction. Alternatively, the spinal cords were divided into 6 equal sections, aligned vertically, snap frozen in O.C.T. compound (Sakura Finetek USA, Torrance, Calif.) and stored at −70° C. for histopathology. The blood was clotted, centrifuged, and the decanted serum was frozen at −70° C. prior to analysis.
# Individual mice were analyzed and the mean and SD were calculated for each group of mice. Experiments were repeated at least once. The significance of differences between the group means was determined using the Mann-Whitney test (n≦16), Student's t-test (n>16), or Chi-squared test (binomial data); p<0.05 was considered significant.
# Serum calcium analysis = assay type: in vivo, mouse; conditions: mice with EAE, 1 μg/day vitamin D3, end of the 28 day study
# Experimental: Blood was collected, clotted, and centrifuged (2,000×g for 10 min) at 6° C. The serum was decanted and stored at −20° C. The samples, standards, and buffer blanks (2 μL each) were aliquoted into duplicate wells of a 96-well plate. The calcium detection reagent was prepared according to the manufacturer's directions (Sigma Diagnostics. St. Louis, Mo.), and 0.25 mL was added to each well. The absorbance at 570 nm less the blank was measured 10 to 30 min later. The Ca^++ mmol/L serum was determined from a standard curve.
# [2] = Serum 25-(OH)D3 radioimmunoassay; conditions: mice with EAE (score 1.5±0.5), 1 μg/day vitamin D3, end of the 28 day study
# Experimental: The serum was extracted and the 25-(OH)D3 (DiaSorin, Stillwater, Minn.) and calcitriol (Nichols Institute Diagnostics, San Juan Capistrano, Calif.) concentrations were determined in duplicate with radioimmunoassay kits according to the manufacturer's protocols.
# MS = conditions: cited from earlier work
# [3] = female and male B10.PL mice, chow-fed, 0.5 (female) or 1.0 (male) nmol injected once, 14 days post treatment
compound,measurement,setting,value
C[C@H]1C[C@@H]2[C@H]([C@@H](O)C[C@@]3(C)[C@H]2CC[C@]3(O)C(=O)CO)[C@@]2(C)C=CC(=O)C=C12 [Methyl-prednisolone],mice in which remission was induced,"[1]; chow-fed male and female mice with EAE (score 2.3±0.4), 200 μg/d oral methyl-prednisolone",100%
same,time to remission,"[1]; chow-fed male and female mice with EAE, 200 μg/d oral methyl-prednisolone",6 ± 2 days
same,Cumulative disability,[1]; [3],24.8 ± 6.9
same,EAE severity (decrease),[1]; [3],0.8 ± 0.7
same,Remission (%),[1]; [3],40%
same,Remission (days in),[1]; [3],3.0 ± 4.1 days
same,Remission (days to),[1]; [3],3.0 ± 0.0 days
same,EAE severity (initial),"[1]; female and male B10.PL mice, chow-fed, 0.5 (female) or 1.0 (male) nmol of steroid compound injected once, score at randomization",2.0 ± 0.0
C=C1CC[C@H](O)C/C1=C/C=C1\CCC[C@]2(C)[C@@H]([C@H](C)CCCC(C)C)CC[C@@H]12 [vitamin D3],effect on clinical disability in mice with EAE,"[1]; 1 μg/day vitamin D3, 28 day study",no effect
same,cumulative disability (sum of daily disability scores; mean),"[1]; mice with EAE, 1 μg/day vitamin D3, 28 day study, both groups",71±18
same,mortality,"[1]; mice with EAE, 1 μg/day vitamin D3, 28 day study, both groups (supplemented and un-supplemented)",9-14%
same,serum calcium levels,Serum calcium analysis,9.6 ± 1.5 mg/dL
same,serum 25-(OH)D3,[2],8217 nmol/L
Natalizumab: an integrin-specific monoclonal antibody (mAb),adverse risks,"MS; human, in vivo",increased the risk of cardiac problems and fatal progressive multifocal leukoencephalopathy
same,slowing of disability progression,MS; over two years,~42%
glatiramer acetate,disability progression,"MS; RRMS, PPMS or SPMS patients",did not slow disability progression
same,reduction of the relapse rate,MS; some relapsing-remitting MS (RRMS),~35%

# Reference: patent US20090221538A1, “METHODS OF TREATING MULTIPLE SCLEROSIS BY ADMINISTERING PULSE DOSE CALCITRIOL” (priority 2008, published 2009)
